Assay results taken from patent US20260234144A1 (TAY THERAPEUTICS LIMITED, priority 2023, published 2026).

Test system: R223X stop codon in the mutated luciferase gene, ADXC8 luciferase reporter cell line
Test: cells
Type: cell-based
Details: ADXC8 cells, 24 hours; for Emax / EC (100% of 200 uM G418 response): 24 h; for Emax: read-out: Fold Over Control, maximum fold response relative to 200 μM G418; for EC (100% of 200 uM G418 response): read-out: pC100%, negative logarithm of the concentration giving the same response as 200 μM G418; for Fold Over Control: maximum fold response relative to 200 μM G418; for pC100%: negative logarithm of the concentration giving the same response as 200 μM G418

SMILES | Emax [%] | EC (100% of 200 uM G418 response) [µM] | Fold Over Control | pC100%
CNc1nc(N[C@H]2CN(C)C[C@H]2OC)nc2nc(C)cc(C)c12 [Example 369] | 100 to 3000 | 1 to 10 |  | 
CNc1nc(NC2CCN(C)CC2)nc2ncccc12 [Example 39, N^4-methyl-N^2-(1-methylpiperidin-4-yl)pyrido[2,3-d]pyrimidine-2,4-diamine] | 100 to 3000 | 10 to 100 |  | 
CNc1nc(NC2(CO)CCNC2)nc2nc(C)cc(C)c12 (single isomer, unassigned) [Example 441] |  |  | ## (Fold over Ctrl > 1 ≤ 30) | ++ (pC100% > 5.0 ≤ 6.0)
Cc1cc(C)c2c(N)nc(NCCN3CCNC3=O)nc2n1 [Example 160] | 0 to 100 | > 100 |  | 
CNc1nc(N[C@@H]2CCNC2)nc2nc(C)c(Br)c(C)c12 [Example 331] | 100 to 3000 | 0.1 to 1 |  | 
Cc1cc(C)c2c(N)nc(NC3CCN(Cc4cccc(C(N)=O)c4)CC3)nc2n1 [Example 484] | 100 to 3000 | 10 to 100 |  | 
CN1CCC(Nc2nc(N)c3ccc(N(C)C)nc3n2)CC1 [Example 36, N^7,N^7-dimethyl-N^2-(1-methylpiperidin-4-yl)pyrido[2,3-d]pyrimidine-2,4,7-triamine] | 100 to 3000 | 10 to 100 |  | 
CC(=O)Nc1cccc(CN2CCC(Nc3nc(N)c4c(C)cc(C)nc4n3)CC2)c1 [Example 480] | 100 to 3000 | 10 to 100 |  | 
Cc1cc(C)c2c(N)nc(NC3CCNCC3(C)C)nc2n1 (stereo not drawn) [Example 212] | 100 to 3000 | 1 to 10 |  | 
Cc1c2c(nc3nc(NC4CCN(Cc5ccc(S(N)(=O)=O)cc5)CC4)nc(N)c13)CCC2 [Example 667] | 100 to 3000 | 1 to 10 |  | 
COc1ccc2c(N)nc(NC3CCN(C)CC3)nc2n1 [Example 17, 7-methoxy-N^2-(1-methylpiperidin-4-yl)pyrido[2,3-d]pyrimidine-2,4-diamine] | 100 to 3000 | 10 to 100 |  | 
CNc1nc(NC2CC3CC2CN3C)nc2nc(C)cc(C)c12 (single isomer, unassigned) [Example 432] |  |  | ## (Fold over Ctrl > 1 ≤ 30) | ++ (pC100% > 5.0 ≤ 6.0)
CNc1nc(N[C@H]2CN(C)C[C@H]2F)nc2nc(C)cc(C)c12 [Example 340] | 100 to 3000 | 1 to 10 |  | 
CN1CCC(Nc2nc(N)c3ccc(-c4ccc(F)c(F)c4)nc3n2)CC1 [Example 108] |  | 1 to 10 |  | 
CN1CCC(Nc2nc(N)c3ccc(-c4ncco4)nc3n2)CC1 [Example 119, N^2-(1-methylpiperidin-4-yl)-7-(oxazol-2-yl)pyrido[2,3-d]pyrimidine-2,4-diamine] | 100 to 3000 | 10 to 100 |  | 
Cc1c2c(nc3nc(NC4CCN(Cc5cccc6cc[nH]c56)CC4)nc(N)c13)CCC2 [Example 672] | 100 to 3000 | 0.01 to 0.1 |  | 
CNc1c(C)c(N[C@@H]2CCN(C)C2)nc2nc(C)cc(C)c12 [Example 620] | 0 to 100 | > 31.6 |  | 
Cc1cc(C)c2c(N)nc(NC3CCN(C4COC4)CC3)nc2n1 [Example 197] | 0 to 100 | > 31.6 |  | 
CN1CCC(Nc2nc(N)c3ccc(C(=O)O)nc3n2)CC1 [Example 236, 4-amino-2-((1-methylpiperidin-4-yl)amino)pyrido[2,3-d]pyrimidine-7-carboxylic acid] | 0 to 100 | > 100 |  | 
CNc1nc(N[C@@H]2C[C@@H](O)CN(C)C2)nc2nc(C)cc(C)c12 [Example 604] | 100 to 3000 | 1 to 10 |  | 
[2H]C([2H])([2H])Nc1nc(NC2CCN(C)CC2)nc2nc(C)cc(C)c12 [Example 328] | 100 to 3000 | 1 to 10 |  | 
CNc1nc(NC2CCN(Cc3ccccc3O)CC2)nc2nc(C)c3c(c12)CCC3 [Example 544] | 100 to 3000 | 0.1 to 1 |  | 
Cc1cc(C)c2c(N)nc(NC[C@H]3CN(C(=O)OC(C)(C)C)CCO3)nc2n1 [Example 138] | 0 to 100 | > 100 |  | 
CNc1nc(N[C@@H]2CCNC2)nc2nc3c(c(C)c12)CCC3 [Example 231, (R)—N^4,5-dimethyl-N^2-(pyrrolidin-3-yl)-7,8-dihydro-6H-cyclopenta[5,6]pyrido[2,3-d]pyrimidine-2,4-diamine] | 100 to 3000 | 0.1 to 1 |  | 
Cc1cc(C)c2c(N)nc(NC3CCN(Cc4cc(Cl)ccc4O)CC3)nc2n1 [Example 542] | 100 to 3000 | 1 to 10 |  | 
CNc1nc(N[C@H]2CNC[C@@H]2F)nc2nc3c(c(C)c12)CCC3 [Example 342] | 100 to 3000 | 0.1 to 1 |  | 
Cc1cnc2nc(NC3CCN(C)CC3)nc(N)c2c1 [Example 4, 6-methyl-N^2-(1-methylpiperidin-4-yl)pyrido[2,3-d]pyrimidine-2,4-diamine] | 100 to 3000 | 10 to 100 |  | 
CN1CCC(Nc2nc(N)c3cc(C4CCCC4)cnc3n2)CC1 [Example 243, 6-cyclopentyl-N^2-(1-methylpiperidin-4-yl)pyrido[2,3-d]pyrimidine-2,4-diamine] | 100 to 3000 | 10 to 100 |  | 

SMILES | Emax [%] | EC (100% of 200 uM G418 response) [µM] | Fold Over Control | pC100%
Cc1cc(C)c2c(N)nc(NCC3CN(C(=O)OC(C)(C)C)C3)nc2n1 [Example 139] | 100 to 3000 | 10 to 100 |  | 
CNc1nc(N[C@H]2CN[C@H](CO)C2)nc2nc(C)cc(C)c12 [Example 415] |  | 1 to 10 |  | 
CNc1nc(N[C@H]2CN(C(C)C)C[C@@H]2O)nc2nc(C)cc(C)c12 [Example 625] | 100 to 3000 | 1 to 10 |  | 
COCc1ccnc2nc(NC3CCN(C)CC3)nc(N)c12 [Example 248, 5-(methoxymethyl)-N^2-(1-methylpiperidin-4-yl)pyrido[2,3-d]pyrimidine-2,4-diamine] | 0 to 100 | > 100 |  | 
Cc1cc(C)c2c(N)nc(NCCNCC(F)F)nc2n1 [Example 168] | 100 to 3000 | 10 to 100 |  | 
Cc1cc(C)c2c(N)nc(NCCCN3CCS(=O)(=O)CC3)nc2n1 [Example 8, 4-(3-((4-amino-5,7-dimethylpyrido[2,3-d]pyrimidin-2-yl)amino)propyl)thiomorpholine 1,1-dioxide] | 0 to 100 | > 100 |  | 
CNC(=O)c1ccc(CN2CCC(Nc3nc(N)c4c(C)cc(C)nc4n3)CC2)cc1 [Example 475] | 100 to 3000 | 10 to 100 |  | 
Cc1cc(C)c2c(N)nc(NC3CCN(Cc4ccccc4C(F)F)CC3)nc2n1 [Example 493] | 100 to 3000 | 1 to 10 |  | 
CNc1nc(N[C@H]2CN(C)CC[C@@H]2O)nc2nc(C)cc(C)c12 [Example 609] |  | 1 to 10 |  | 
Nc1nc(NC23CCN(CC2)CC3)nc2nc(-c3ccccc3)c3c(c12)CCC3 [Example 127, 6-phenyl-N^3-(quinuclidin-4-yl)-8,9-dihydro-7H-cyclopenta[4,5]pyrido[2,3-d]pyrimidine-1,3-diamine] | 100 to 3000 | 0.1 to 1 |  | 
Cc1cc(C)c2c(N)nc(N[C@H]3CNC[C@@H]3O)nc2n1 [Example 293] |  | 0.1 to 1 |  | 
CN1CCC(Nc2nc(N)c3ccc(-c4cnn(C)c4)nc3n2)CC1 [Example 26, 7-(1-methyl-1H-pyrazol-4-yl)-N^2-(1-methylpiperidin-4-yl)pyrido[2,3-d]pyrimidine-2,4-diamine] | 0 to 100 | > 100 |  | 
Cc1cc(C)c2c(N)nc(NCCN3CC4(CCCO4)C3)nc2n1 [Example 167] | 0 to 100 | > 31.6 |  | 
CNc1nc(N[C@H]2CN(C3CC3)C[C@@H]2O)nc2nc(C)cc(C)c12 [Example 612] | 100 to 3000 | 10 to 100 |  | 
Cc1cc(C)c2c(N)nc(N[C@@H]3CCN(CC(F)(F)F)C3)nc2n1 [Example 311] | 0 to 100 | > 31.6 |  | 
CC(=O)Nc1ccc(CN2CCC(Nc3nc(N)c4c(C)cc(C)nc4n3)CC2)cc1 [Example 458] | 100 to 3000 | 10 to 100 |  | 
Cc1c2c(nc3nc(NC4CCN(Cc5ccccc5O)CC4)cc(N)c13)CCC2 [Example 680] | 100 to 3000 | 0.01 to 0.1 |  | 
CNc1nc(N[C@@H]2CNC[C@H]2O)nc2nc3c(c(C)c12)CCC3 [Example 546] | 100 to 3000 | 1 to 10 |  | 
CNc1nc(NC2CCN(Cc3ccc(C#N)cc3)CC2)nc2nc(C)cc(C)c12 [Example 580] | 100 to 3000 | 1 to 10 |  | 
Cc1cc(C)c2c(N)nc(NC3CCN(Cc4ccccc4)CC3(F)F)nc2n1 (stereo not drawn) [Example 639] | 0 to 100 | > 31.6 |  | 
CNc1nc(NC2CNCC2C#N)nc2nc(C)cc(C)c12 (single isomer, unassigned) [Example 451] |  |  | # (Fold over Ctrl ≥ 0 ≤ 1) | * (pC100 ≤ 4.5)
Cc1ccc(CN2CCC(Nc3nc(N)c4c(C)cc(C)nc4n3)CC2)c(O)c1 [Example 540] | 100 to 3000 | 1 to 10 |  | 
Cc1cc(C)c2c(N)nc(NC3CN(C)C3)nc2n1 [Example 153] | 0 to 100 | > 31.6 |  | 
CNc1nc(N[C@H]2CN(C)CC[C@H]2O)nc2nc(C)cc(C)c12 [Example 607] |  | 1 to 10 |  | 
CN1CCC(Nc2nc(N)c3ccc(-c4ccccc4O)nc3n2)CC1 [Example 106] | 0 to 100 | > 100 |  | 
Cc1cc(C)c2c(N)nc(NC3CCN(Cc4ccncc4Br)CC3)nc2n1 [Example 559] | 100 to 3000 | 1 to 10 |  | 
CN1CCC(Nc2nc(N)c3ccc(-c4cccc(F)c4)nc3n2)CC1 [Example 62] | 100 to 3000 | 1 to 10 |  | 
